From the NIST ThermoML archive (doi:10.1016/j.jct.2016.09.040)

Assays:
[1] = mn = molality of the nth substance listed, in mol/kg; conditions: 75 kPa, Liquid; for viscosity: Capillary tube (Ostwald / Ubbelohde) method; for speed of sound: Frequency=3 MHz, Sing-around technique in a fixed-path interferometer; for mass density: Vibrating tube method
[2] = 75 kPa, Liquid; for viscosity: Capillary tube (Ostwald / Ubbelohde) method

[Cl-].[Na+] [sodium chloride] + O
[1]
Conditions	mass density [kg/m3]	speed of sound [m/s]	viscosity [mPa·s]
293.15 K, m1 = 0.1502	1004.43	1492.5	1.011
293.15 K, m1 = 0.3004	1010.4	1502	1.018
293.15 K, m1 = 0.5002	1018.11	1514.4	1.034
293.15 K, m1 = 0.7001	1026.19	1526.9	1.059
298.15 K, m1 = 0.1502	1003.21	1506.2	0.891
298.15 K, m1 = 0.3004	1008.89	1515.3	0.908
298.15 K, m1 = 0.5002	–	1527.3	0.933
298.15 K, m1 = 0.7001	1024.85	1539.2	0.95
303.15 K, m1 = 0.1502	1001.74	1518.1	0.791
303.15 K, m1 = 0.3004	1007.39	1527	0.814
303.15 K, m1 = 0.5002	1015.58	1538.6	0.835
303.15 K, m1 = 0.7001	1023.12	1550.2	0.852
308.15 K, m1 = 0.1502	1000.1	–	0.712
308.15 K, m1 = 0.3004	1005.86	1537.1	0.738
308.15 K, m1 = 0.5002	–	1548.3	0.755
308.15 K, m1 = 0.7001	1021.53	1559.5	0.768
313.15 K, m1 = 0.1502	998.234	1537.6	0.645
313.15 K, m1 = 0.3004	1004.13	1545.7	0.665
313.15 K, m1 = 0.5002	1011.76	1556.5	0.687
313.15 K, m1 = 0.7001	–	1567.3	0.701

O [water] + [Cl-].[Na+]
[1], m2 = 0
Conditions	mass density [kg/m3]	speed of sound [m/s]	viscosity [mPa·s]
293.15 K	–	–	1.003
298.15 K	–	–	0.89
303.15 K	–	–	0.798
308.15 K	994.063	–	0.72
313.15 K	–	1529	0.653

O [water]
[2]
Conditions	viscosity [mPa·s]
293.15 K	1.003
298.15 K	0.89
303.15 K	0.798
308.15 K	0.72
313.15 K	0.653

Conditions	speed of sound [m/s]
[2], 313.15 K, Frequency=3 MHz, Sing-around technique in a fixed-path interferometer	1529

O [water] + CCC(N)C(=O)O
[1], m2 = 0
Conditions	mass density [kg/m3]	speed of sound [m/s]	viscosity [mPa·s]
293.15 K	–	–	1.003
298.15 K	–	–	0.89
303.15 K	–	–	0.798
308.15 K	994.063	–	0.72
313.15 K	–	1529	0.653
